The source of these data is patent publication US10670609B2, “Ytterbium as a surrogate cation to measure calcium flux” (Government of the United States, as represented by the …, priority 2017, dated 2020).

SMILES strings stand for the structures. Where two headings read alike, the source gives them in different places.

This test concerns Human retinal pigmented epithelium cells (RPE). Description: NO bioassay: DAF-FM DA fluorescence as indicator of NO in RPE cells. Format: cell-based.
[1] abbreviates: RPE cells in PBS supplemented with Ca2+ and Mg2+.
Setting [2] is: RPE cells without calcium (calcium-free PBS).
Where [3] appears, read: Table 3, DAF-FM DA NO fluorescence change vs control, WT RPE cells in PBS with 5 mM Ca2+ + Mg2+ + 8 mM pyruvate, agent 300 ppm unless stated.

`O=NO` [Nitrite, sodium nitrite]: the “NO level (DAF-FM DA fluorescence) relative to control, in words” value is given as “increased relative to control” and the “[(E − C)/C] × 100 (N = 3, A.U. %)” value is recorded as 2%.

With `[Fe+3]` [Fe^3+], the “NO level (DAF-FM DA fluorescence) relative to control, in words” value under setting [1] is “dropped by varying degrees” and the “NO level (DAF-FM DA fluorescence) relative to control, in words” value under setting [2] is given as “could not be restored”. Moreover, under setting [3], the “[(E − C)/C] × 100 (N = 3, A.U. %)” value is −93%.

For the molecule `[Ce+3]` [Ce^3+], the “NO level (DAF-FM DA fluorescence) relative to control, in words” value under setting [1] was “dropped by varying degrees” and the “NO level (DAF-FM DA fluorescence) relative to control, in words” value under setting [2] is given as “could not be restored”. In addition, the “[(E − C)/C] × 100 (N = 3, A.U. %)” value under setting [3] was −96%.

Take `CC(=O)OCOC(=O)CN(CC(=O)OCOC(C)=O)c1ccccc1OCCOc1ccccc1N(CC(=O)OCOC(C)=O)CC(=O)OCOC(C)=O` [BAPTA, 1,2-Bis(2-amino-phenoxy)ethane-N,N,N′,N′-tetraacetic acid tetrakis (acetoxymethyl ester)]: the “NO level (DAF-FM DA fluorescence) relative to control, in words” value is “lower” and the “[(E − C)/C] × 100 (N = 6, A.U. %)” value is on record as 11%.

Turning to `[Pr+3]` [Pr^3+], the “NO level (DAF-FM DA fluorescence) relative to control, in words” value under setting [1] is recorded as “dropped by varying degrees” and the “NO level (DAF-FM DA fluorescence) relative to control, in words” value under setting [2] is reported as “could not be restored”. For the same molecule, under setting [3], the “[(E − C)/C] × 100 (N = 3, A.U. %)” value was −91%. Besides, the “decrease of NO (low DAF-FM DA fluorescence), modal” value (addition of agent to RPE cells, Table 3) came out at 91%.

Consider `[Ca+2].[Cl-].[Cl-]` [Ca^2+, calcium chloride], for which the “NO level (DAF-FM DA fluorescence) relative to control, in words” value is “slight decrease in NO”.

As for `O=C1c2c(O)cccc2Cc2cccc(O)c21` [Dithranol], the “[(E − C)/C] × 100 (N = 3, A.U. %)” value under setting [3] was −69%.
